Measurements reported in US7897568B2, “Compositions for treatment of cancer” (priority 2006, dated 2011).
Where no end group is shown, it is not given here.

How the values were obtained:
MCF7-SNCG cells = experiment: Flow cytometry (PI cell cycle and anti-phospho-H3) after paclitaxel; type: cell-based; conditions: 0.5 μM paclitaxel
Procedure: (§1) FIG. 7A through D show expression of EGFP-ANK disrupting the SNCG-mediated inhibition of mitotic checkpoint function as measured by microscopy and flow cytometry. The bar graphs show the expression of EGFP-ANK disrupting the SNCG-mediated inhibition of mitotic checkpoint function, using (FIG. 7A) DAPI and (FIG. 7B) anti-phospho-H^3 staining. For graphs of FIGS. 7A and 7B, the cells treated with 0.5 μM paclitaxel for 18 hours or untreated control cells were fixed with 4% paraformaldehyde for 20 minutes at room temperature. In both cases, the cells were then stained with 1 μg/ml of DAPI or 2 μg/ml anti-phospho-H3 primary and Texas Red goat anti-rabbit secondary antibodies (Invitrogen). Green fluorescent cells were identified for positive transfected cells. For each sample, 200-300 cells randomly chosen from 5 different views under a Nikon fluorescent microscope were scored for interphase, mitotic, or apoptotic based upon nuclei morphology. The data shown were derived from three separate transfections (p<0.01). […]
(§2) Two days after transfection, cells were exposed to paclitaxel for 18 hours and numbers of mitotic arrested and apoptotic cells were counted after DAPI staining. […] These cells were also probed with rabbit polyclonal anti-phospho-H^3 and the mitotic index was calculated according to the proportion of the number of H^3 stained EGFP positive cells to total EGFP positive cells (FIG. 7B). […]

GST-SNCG = target: T1, GST-SNCG (Homo sapiens, UniProt O76070); experiment: GST pull-down of EGFP-ANK with GST-SNCG; type: binding; conditions: FIG. 5D, GST as control
T1 construct: The SNCG coding region was amplified from the human cDNA clone; made in house; host or cells: Escherichia coli BL21 (DE3)
Description: FIGS. 5A through 5D show co-localization, co-immunoprecipitation (co-IP) and GST pull down experiments, using an enhance green fluorescent protein (EGFP)-ANK fusion protein, which confirm that SNCG associates with the ANK peptide in vivo. FIG. 5A is a western blot depicting detection of EGFP-ANK expression in COS7 cells. Lanes 2 and 3 were samples transfected with different clones, cl-4 and cl-8, respectively, of pEGFP-ANK plasmid. In FIG. 5B, MCF7-SNCG cells were transfected with pEGFP-ANK, fixed on a cover slip, permeabilized and probed with anti-SNCG and anti-GFP antibodies to observe co-localization. Fluorescent cells were visualized using an ×100 objective (oil) on an inverted confocal microscope (Leica). FIGS. 5C and 5D are western blots showing association of SNCG and ANK peptide as evidenced by co-IP of SNCG with EGFP-ANK in MCF7-SNCG and MCF7-neo cells. In these experiments, MCF7-SNCG and MCF7-neo cells were transfected with pEGFP-ANK or pEGFP plasmids. […]
GST-SNCG (20 μg) protein or GST alone was added to a pre-equilibrated slurry of glutathione-sepharose 4B and incubated for 60 minutes. […] After extensive washes, the beads were collected, boiled in sample buffer, separated on 12% SDS gel and analyzed by western blotting. […]

MCF7-SNCG and T47D cells = experiment: Mitotic index by anti-phospho-H3 immunostaining (microscopy) after paclitaxel; type: cell-based; conditions: over-expressing EGFP-ANK in MCF7-SNCG and T47D cells
Procedure: as §1, §2

T1 sequence (O76070 whole entry): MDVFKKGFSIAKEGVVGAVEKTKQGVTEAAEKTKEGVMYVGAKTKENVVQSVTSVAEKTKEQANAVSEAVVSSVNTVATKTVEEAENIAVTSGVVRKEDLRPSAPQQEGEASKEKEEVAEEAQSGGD

Substance: EGFP-ANK: ANK peptide expressed as a fusion protein with its amino-terminal linked to EGFP protein, approximately 37 kDa ({EGFP}-KGNSALHVASQHGHLGCIQTLVRYGANVTMQNHG)
- increase in positive phosphorylated histones (anti-phospho-H3 staining) (MCF7-SNCG cells; versus MCF7-SNCG cells not containing EGFP-ANK): 3,5 fold
- increase in apoptotic/dead cell population (MCF7-SNCG cells; cell cycle analysis, versus control vector pEGFP): almost a four-fold increase
- pull down by GST-SNCG (GST-SNCG): SNCG is capable of immunoprecipitating EGFP-ANK
- sensitivity to paclitaxel by anti-phospho-H3 mitotic index (MCF7-SNCG and T47D cells): increases in sensitivity to paclitaxel
